Test results as given in US10759785B2, “Compounds” (ENTERPRISE THERAPEUTICS LIMITED, priority 2016, dated 2020).
One block for each compound: values may come before it.

Assays:
[1] = target: T1, ENaC (Homo sapiens, UniProt P37088+P51168+P51170); experiment: Short circuit current assay to determine ENaC blocker potency in human bronchial epithelial cells; format: cell-based; details: 50% inhibition of total amiloride-sensitive ISC, HBECs, apical addition; read-out: Averages. ENaC Ic50 μm Avg
T1 construct: host or cells: primary human bronchial epithelial cells (HBECs) differentiated at an air-liquid interface
T1 sequence (P37088 1-669): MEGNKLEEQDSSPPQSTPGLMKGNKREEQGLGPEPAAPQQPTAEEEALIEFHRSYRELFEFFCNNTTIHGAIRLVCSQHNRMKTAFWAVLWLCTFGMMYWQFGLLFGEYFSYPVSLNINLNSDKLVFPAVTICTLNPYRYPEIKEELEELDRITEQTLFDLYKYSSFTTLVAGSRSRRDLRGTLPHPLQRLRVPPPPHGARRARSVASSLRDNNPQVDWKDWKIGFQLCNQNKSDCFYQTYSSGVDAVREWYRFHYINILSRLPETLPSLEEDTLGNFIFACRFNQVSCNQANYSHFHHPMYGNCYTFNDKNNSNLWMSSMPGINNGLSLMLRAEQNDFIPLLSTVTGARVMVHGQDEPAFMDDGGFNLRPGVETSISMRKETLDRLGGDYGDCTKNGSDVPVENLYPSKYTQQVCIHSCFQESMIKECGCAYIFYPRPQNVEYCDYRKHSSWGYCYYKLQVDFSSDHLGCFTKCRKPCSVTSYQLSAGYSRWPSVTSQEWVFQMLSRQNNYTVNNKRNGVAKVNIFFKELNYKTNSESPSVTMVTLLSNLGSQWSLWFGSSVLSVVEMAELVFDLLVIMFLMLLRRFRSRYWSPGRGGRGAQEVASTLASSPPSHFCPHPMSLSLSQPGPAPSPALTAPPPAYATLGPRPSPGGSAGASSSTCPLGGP
T1 sequence (P51168 1-640): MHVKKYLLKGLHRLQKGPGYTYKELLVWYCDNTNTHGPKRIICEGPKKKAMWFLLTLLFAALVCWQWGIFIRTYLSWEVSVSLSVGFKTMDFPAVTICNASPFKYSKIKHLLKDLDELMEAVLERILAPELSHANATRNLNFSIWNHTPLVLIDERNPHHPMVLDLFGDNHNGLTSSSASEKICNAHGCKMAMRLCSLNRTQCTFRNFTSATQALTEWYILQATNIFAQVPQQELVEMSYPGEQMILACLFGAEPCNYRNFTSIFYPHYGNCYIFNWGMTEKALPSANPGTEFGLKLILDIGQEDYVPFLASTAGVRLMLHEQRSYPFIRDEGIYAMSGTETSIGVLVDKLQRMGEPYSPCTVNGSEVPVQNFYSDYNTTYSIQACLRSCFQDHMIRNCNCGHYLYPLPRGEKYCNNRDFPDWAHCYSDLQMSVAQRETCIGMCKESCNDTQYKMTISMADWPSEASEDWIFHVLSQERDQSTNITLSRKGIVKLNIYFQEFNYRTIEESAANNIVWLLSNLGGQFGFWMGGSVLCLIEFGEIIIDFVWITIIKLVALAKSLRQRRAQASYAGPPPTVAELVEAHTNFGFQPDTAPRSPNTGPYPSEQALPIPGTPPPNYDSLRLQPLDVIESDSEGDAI
T1 sequence (P51170 1-649): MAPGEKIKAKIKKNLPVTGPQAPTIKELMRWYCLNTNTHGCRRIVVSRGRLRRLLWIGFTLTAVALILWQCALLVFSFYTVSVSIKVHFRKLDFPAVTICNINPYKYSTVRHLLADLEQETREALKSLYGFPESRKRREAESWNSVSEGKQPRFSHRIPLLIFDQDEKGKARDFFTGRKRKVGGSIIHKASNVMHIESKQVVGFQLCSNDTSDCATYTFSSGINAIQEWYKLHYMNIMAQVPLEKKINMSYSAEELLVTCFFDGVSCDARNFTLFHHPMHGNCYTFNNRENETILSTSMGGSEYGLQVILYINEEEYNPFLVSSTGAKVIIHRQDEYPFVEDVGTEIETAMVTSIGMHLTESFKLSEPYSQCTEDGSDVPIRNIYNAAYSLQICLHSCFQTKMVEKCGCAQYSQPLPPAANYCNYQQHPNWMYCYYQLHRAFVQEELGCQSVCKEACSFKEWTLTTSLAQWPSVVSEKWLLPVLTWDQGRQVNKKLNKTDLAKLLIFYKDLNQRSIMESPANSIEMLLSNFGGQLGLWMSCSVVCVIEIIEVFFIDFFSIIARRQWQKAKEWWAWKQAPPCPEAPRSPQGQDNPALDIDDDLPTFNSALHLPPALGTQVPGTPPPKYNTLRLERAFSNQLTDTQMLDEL
Experimental: Example 27—Short Circuit Current Assay to Determine ENaC Blocker Potency in Human Bronchial Epithelial Cells
Human bronchial epithelial cells (HBECs) (Lonza, UK) were cultured using a modification of the method described by Coote et al, (2008). Cells were seeded into plastic T-75 flasks and grown in Bronchial Epithelial Cell Growth Medium (BEGM) (Lonza, UK) supplemented with bovine pituitary extract (52 ng/mL), hydrocortisone (0.5 μg/mL), human recombinant Epidermal Growth Factor (0.5 ng/mL), epinephrine (0.5 ng/mL), transferrin (10 ng/mL), insulin (5 ng/mL), retinoic acid (0.1 ng/mL), triiodothyronine (6.5 ng/mL), gentamycin (50 μg/mL) and amphotericin-B (50 ng/mL). Medium was changed every 48 hours until cells were 90% confluent. Cells were then passaged and seeded (8.25×10^5 cells/insert) onto polycarbonate Snapwell™ inserts (Costar, UK) in differentiation media containing 50% DMEM in BGEM with the same supplements as above but without triiodothyronine and a final retinoic acid concentration of 50 nM (all-trans retinoic acid; Sigma-Aldrich, UK). Cells were maintained submerged for the first 7 days in culture after which time they were exposed to an apical air interface for the remainder of the culture period. From the first day of establishment of an ALI, HBEC were fed with a DMEM:HAMS F-12 (1:1) media containing 2% Ultroser G (Pall BioSepra, France) with gentamycin (50 μg/mL) and amphotericin B (50 ng/mL). Cells were used for short-circuit current assay between days 14-21 after the establishment of the ALI. At all stages of culture, cells were maintained at 37′C in 5% CO2 in an air incubator.
Short-Circuit Current (ISC) Measurements
Snapwell inserts were mounted in Costar Vertical Diffusion Chambers (Costar, UK) and were bathed with continuously gassed Ringer solution (5% CO2 in O2; pH 7.4) maintained at 37° C. containing (in mM): 120 NaCl, 25 NaHCO3, 3.3 KH2PO4, 0.8 K2HPO4, 1.2 CaCl2, 1.2 MgCl2 and 10 glucose. The solution osmolarity was always between 280-300 mOsm/kg H2O for all physiological salt solutions used. Cells were voltage clamped to 0 mV (model EVC4000, WPI). Transepithelial resistance (RT) was measured by applying a 2 mV pulse at 30 s intervals and calculating RT by Ohm's law. Data were recorded using a PowerLab workstation (ADInstruments, UK).
ENaC blocker compounds were added to the apical chamber from a 1000-fold stock solution (prepared in DMSO) to achieve a cumulative concentration response in terms of the inhibition of the basal ISC. At the completion of the concentration response, a supra-maximal concentration of amiloride (10 μM) was added. The concentration of test compound that induced a 50% inhibition of the total amiloride-sensitive ISC (IC50) was calculated using GraphPad Prism v6.05.

[2] = target: T1, ENaC; details: cited from earlier work
[3] = Microsomal stability (human microsomes); format: in vitro ADME; details: pH 7.4, 1 μM test compound, 0.5 mg/mL protein, 1 mM NADPH, 37° C., read-out: Averages. Mic Half Life Human
Experimental: (§1) Example 28—Microsomal Stability
(§2) Microsomes (rat and human) were obtained from Bioreclamation. Test compound stock solutions in DMSO (10 mM) were diluted with DMSO to 2 mM. Further dilution was completed to achieve a 100 μM stock (final concentrations; 91.5% Acetonitrile: 8.5% DMSO). Final test compound concentration in incubation was 1 μM (<0.1% DMSO). The following probe substrates were used: verapamil, propranolol, metoprolol and phenacetin (rat) at a final incubation concentration of 1 μM. Assay buffer—Solution 1: 17.4 g potassium phosphate dibasic anhydrous (K2HPO4, 0.1 M) dissolved in 1 L deionised water. Solution 2: 13.6 g potassium phosphate monobasic anhydrous (KH2PO4, 0.1 M) dissolved in 1 L deionised water. Potassium phosphate solutions 1 and 2 were combined to form a pH 7.42 solution at 37° C. pH 7.4 with 2 mM magnesium chloride. NADPH (10 mM)—diluted in deionised water. Frozen microsomes were thawed at 37° C. Microsomes were diluted in assay buffer to achieve a final protein concentration of 0.5 mg/mL and 1 mM NADPH. The following procedure was completed on a Perkin Elmer Janus robotic platform in 96 well format: The microsomal incubation plate was transferred to a heater shaker at 300 rpm and solution heated to 37° C. for 10 min pre-warm. A no co-factor control at 0 and 45 min and one replicates of each test compound was included in every assay. Microsomes were incubated at 37° C., on a shaker set at 300 rpm throughout the assay. At each timepoint (0, 5, 15, 30, 45 min) 50 μL of sample was removed from the 96-well and added to 200 μL of quench solution (acetonitrile containing 0.1% formic acid and imipramine/labetalol, 200 nM). Samples were diluted 1:1 with water using the Janus Robot and analysed by LC-MS/MS.

[4] = Hepatic stability (human cryopreserved hepatocytes); format: in vitro ADME; details: cryopreserved hepatocytes, pH 7.4, 1 μM test compound, 1×10^6 cells/mL, 37° C., read-out: Averages. Hep Half Life Human
Experimental: (§3) Example 29—Hepatic Stability
(§4) Cryopreserved hepatocytes (rat and human) were obtained from Bioreclamation. Test compound stock solutions in DMSO (10 mM) were diluted with DMSO to 4 mM. Further dilution was completed to achieve a 100 μM stock (5 μL of 4 mM in 195 μL of 50:50 DMSO:hepatocyte buffer). Final test compound concentration in incubation was 1 μM. The following probe substrates were used: testosterone and carbamazepine at a final incubation concentration of 1 μM. Hepatocyte buffer was prepared (Williams E media containing phenol red and Glutamax™, 15 mM HEPES, warmed to 37° C., pH7.4 with NaOH). Cells were removed from liquid nitrogen, thawed in a waterbath, decanted into 50 mL of pre-warmed Cryopreserved Hepatocyte Recovery Media (LifeTechnologies) and centrifuged. Supernatant fraction was removed, cells were re-suspended in hepatocyte buffer and counted by trypan blue exclusion. Cell viability of >80% was required for all assays. Cells were re-suspended to 1×10^6/mL and 198 μL cell suspension added to each 96-well. 2 μL of 100 μM compound stock solution was added to relevant wells to initiate the incubation. A no cell control and two replicates of each test compound was included in every assay. Cells were incubated at 37° C., on a shaker set at 300 rpm. At each timepoint (0, 15, 30, 45, 60, 90 min) 20 μL of sample was removed from the 96-well and added to 80 μL of quench solution (acetonitrile containing 0.1% formic acid and imipramine/labetalol, 200 nM). Samples were diluted 1:1 with water using the Janus Robot and analysed by LC-MS/MS.

[5] = Hepatic stability (rat cryopreserved hepatocytes); format: in vitro ADME; details: pH 7.4, 1 μM test compound, 1×10^6 cells/mL, 37° C., read-out: Averages. Hep Half Life Rat
Experimental: as §3, §4

[6] = Microsomal stability (rat microsomes); format: in vitro ADME; details: pH 7.4, 1 μM test compound, 0.5 mg/mL protein, 1 mM NADPH, 37° C., read-out: Averages. Mic Half Life Rat
Experimental: as §1, §2

IC50 [1]: 14 nM
Compound: CCn1c(CNC(=O)c2nc(Br)cnc2N)[n+](CC)c2ccc(C(=O)O)cc21 [Example 16, 2-{[(3-amino-6-bromopyrazin-2-yl)formamido]methyl}-6-carboxy-1,3-diethyl-1H-1,3-benzodiazol-3-ium bromide]

Compound: N=C(N)NC(=O)c1nc(Cl)c(N)nc1N [Amiloride]
Effect on MCC ([2]; healthy controls and patients with CF): increase MCC
Effect on clinical endpoints ([2]; inhaled amiloride): lack of a robust effect

half-life at 1 μM [3]: 12 min
half-life at 1 μM [4]: 44 min
half-life at 1 μM [5]: 6 min
half-life at 1 μM [6]: 3 min
Compound: CCn1c(CNC(=O)c2nc(Br)cnc2N)[n+](C)c2ccc(OC)cc21.[I-] [Example 1, 2-{[(3-amino-6-bromopyrazin-2-yl)formamido]methyl}-1-ethyl-6-methoxy-3-methyl-1H-1,3-benzodiazol-3-ium iodide]
